Experimental data from ChEMBL document CHEMBL1201862, “PubChem BioAssay data set” (2004).
Active and inactive are the calls of the source.

Key:
P388/ADR = assay: cells; assay type: functional; conditions: Mus musculus
SN12K1 = assay: cells; assay type: functional; conditions: Homo sapiens
P388 = assay: cells; assay type: functional; conditions: Mus musculus
Cytochrome P450 2D6 = Cytochrome P450 2D6 (Homo sapiens, UniProt P10635);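 note: CYP2D6 member of a cytochrome P450 panel assay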
Cytochrome P450 1A2 = target: T1, Cytochrome P450 1A2 (Homo sapiens, UniProt P05177);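 note: PubChem cytochrome P450 panel assay, CYP1A2 panel member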
T1 sequence (P05177 whole entry): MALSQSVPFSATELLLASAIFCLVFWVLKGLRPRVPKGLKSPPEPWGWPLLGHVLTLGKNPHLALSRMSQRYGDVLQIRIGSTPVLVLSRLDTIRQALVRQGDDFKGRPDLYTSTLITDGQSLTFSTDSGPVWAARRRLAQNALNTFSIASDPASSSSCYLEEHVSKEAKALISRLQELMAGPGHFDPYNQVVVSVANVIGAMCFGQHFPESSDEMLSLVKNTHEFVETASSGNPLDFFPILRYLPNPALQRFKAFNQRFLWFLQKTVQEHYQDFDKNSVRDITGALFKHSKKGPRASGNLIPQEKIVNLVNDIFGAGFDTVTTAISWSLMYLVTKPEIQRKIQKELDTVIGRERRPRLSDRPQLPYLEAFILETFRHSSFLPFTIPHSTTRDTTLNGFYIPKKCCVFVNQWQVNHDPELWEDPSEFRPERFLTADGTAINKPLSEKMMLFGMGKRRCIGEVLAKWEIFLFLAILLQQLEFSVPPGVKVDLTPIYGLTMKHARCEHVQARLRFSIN

Cytochrome P450 2C9 = Cytochrome P450 2C9 (Homo sapiens, UniProt P11712)
Cytochrome P450 3A4 = Cytochrome P450 3A4 (Homo sapiens, UniProt P08684);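 note: CYP3A4 tested as one member of a cytochrome P450 panel screen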
[1] = target: T2, Small ubiquitin-related modifier 1 (Homo sapiens, UniProt P63165); assay: inhibitors of SUMO1 peptide binding, dose response, biochemical, fluorescence polarization, uHTS hits (AID 624382); assay type: functional; conditions: read-out: IC50_Mean
[2] = target: T2, Small ubiquitin-related modifier 1; assay: inhibitors of SUMO1 partner interactions, dose response, biochemical, FRET (AID 624383); assay type: functional; conditions: read-out: IC50_Mean
Nonstructural protein 1 = Nonstructural protein 1 (Influenza A virus, UniProt Q194T2); assay type: functional, Influenza A virus (A/California/07/2009(H1N1))
[3] = target: Heat shock protein HSP 90-alpha (Homo sapiens, UniProt P07900); assay type: functional, organism-based
Vero = assay: cells; assay type: functional; conditions: Chlorocebus sabaeus
Melanocortin receptor 4 = Melanocortin receptor 4 (Homo sapiens, UniProt P32245); assay: MC4R antagonist potency on cAMP, dose response, cell-based, TR-FRET, biased antagonists (AID 602298); assay type: functional;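 note: antagonist potency against agonist-stimulated cAMP production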
[4] = nonselective inhibitors of cellular cAMP signaling, dose response, counter-screen for MC4R biased antagonist project, cell-based, TR-FRET cAMP detection (AID 602305); assay type: functional;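 note: U2OS cells stimulated with forskolin near its EC80 as the cAMP inducer; potency is for inhibition of forskolin-stimulated cAMP signaling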
[5] = target: T3, Probable nicotinate-nucleotide adenylyltransferase (Staphylococcus aureus (strain N315), UniProt P65502); assay type: functional, Staphylococcus aureus subsp. aureus N315;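 for IC50 Mean: confirmatory dose-response retesting of NadD inhibitor hits first found in an ultra-high-throughput screen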
[6] = target: T3, Probable nicotinate-nucleotide adenylyltransferase; assay type: functional, Staphylococcus aureus subsp. aureus N315; conditions: read-out: IC50_Mean
[7] = HeLa cell cytotoxicity, dose response, cytotoxicity control for MgcRacGAP inhibitor project (AID 624300); assay type: functional
[8] = target: T4, Rac GTPase-activating protein 1 (Homo sapiens, UniProt Q9H0H5); assay: MgcRacGAP GTPase-activating activity inhibitors, confirmation, biochemical, ADP Hunter fluorescence, primary and confirmatory (AID 624330); assay type: functional
T4 sequence (Q9H0H5 whole entry): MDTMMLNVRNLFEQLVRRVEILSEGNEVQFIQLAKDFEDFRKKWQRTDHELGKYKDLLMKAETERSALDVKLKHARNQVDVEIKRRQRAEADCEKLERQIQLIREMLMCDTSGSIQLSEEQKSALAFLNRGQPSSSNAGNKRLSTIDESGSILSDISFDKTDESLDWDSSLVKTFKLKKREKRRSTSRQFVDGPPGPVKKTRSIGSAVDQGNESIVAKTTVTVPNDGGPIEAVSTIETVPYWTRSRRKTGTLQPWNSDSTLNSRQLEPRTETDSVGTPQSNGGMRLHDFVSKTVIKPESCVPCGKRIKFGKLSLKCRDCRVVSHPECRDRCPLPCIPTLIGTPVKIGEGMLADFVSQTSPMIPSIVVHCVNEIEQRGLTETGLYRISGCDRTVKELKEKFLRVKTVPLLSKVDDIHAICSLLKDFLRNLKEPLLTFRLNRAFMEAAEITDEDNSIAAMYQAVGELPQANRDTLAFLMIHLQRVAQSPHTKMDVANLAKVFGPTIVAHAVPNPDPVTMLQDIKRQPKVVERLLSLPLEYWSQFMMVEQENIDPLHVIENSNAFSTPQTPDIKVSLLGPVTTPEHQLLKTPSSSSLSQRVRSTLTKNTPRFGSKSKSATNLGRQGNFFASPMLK

Beta-galactosidase = Beta-galactosidase (Escherichia coli, UniProt Q8VNN2); assay: PubChem AID 485352; assay type: functional
[9] = target: T5, Type-1 angiotensin II receptor (Homo sapiens, UniProt P30556); assay: AT1 receptor antagonists, dose response, selectivity assay for APJ receptor antagonist project, cell-based, uHTS hits (AID 463214); assay type: functional;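 note: antagonist potency against angiotensin II stimulated AT1 response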
T5 sequence (P30556 whole entry): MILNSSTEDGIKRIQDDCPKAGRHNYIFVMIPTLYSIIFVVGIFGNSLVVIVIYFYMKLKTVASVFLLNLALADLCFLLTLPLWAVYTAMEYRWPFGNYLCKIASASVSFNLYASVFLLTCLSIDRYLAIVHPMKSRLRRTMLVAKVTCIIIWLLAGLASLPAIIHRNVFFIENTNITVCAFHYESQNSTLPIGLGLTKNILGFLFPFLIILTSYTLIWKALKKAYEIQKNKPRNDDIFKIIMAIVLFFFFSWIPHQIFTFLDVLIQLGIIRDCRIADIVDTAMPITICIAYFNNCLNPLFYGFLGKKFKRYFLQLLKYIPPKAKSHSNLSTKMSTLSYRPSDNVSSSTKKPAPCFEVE

[10] = Fluorescence-based cell-based high throughput dose response assay for inhibitors of the interaction of nucleotide-binding oligomerization domain containing 2 (NOD2) and the receptor-interacting serine-threonine kinase 2 (RIPK2).; assay type: functional; conditions: Homo sapiens
[11] = inhibitors of HIV Env-driven cell fusion, dose response, cherry-pick (AID 652057); assay type: functional, cell-based
[12] = CEM21 lymphoblast cell cytotoxicity, dose response, cytotoxicity control for viral fusion inhibitor project, CellTiter-Glo luminescence, cherry-picked (AID 652042); assay type: functional, cell-based;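 note: potency for signal decrease meaning cytotoxicity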
[13] = ZM109 Env clade C HIV-1 fusion inhibitors, dose response, HeLa effector, CEM target cells, luciferase, cherry-pick (AID 652058); assay type: functional, cell-based
[14] = inhibitors of clade B AD8 Env fusion, dose response, cell-based, cherry-pick (AID 652062); assay type: functional;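 note: luciferase signal from cell-cell fusion driven by HIV-1 clade B AD8 Env; potency is for inhibitors of fusion seen as a drop in luminescence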

T2 sequence (P63165 whole entry): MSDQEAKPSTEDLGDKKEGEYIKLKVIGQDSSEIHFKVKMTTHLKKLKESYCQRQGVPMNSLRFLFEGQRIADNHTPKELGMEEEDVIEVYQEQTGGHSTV
Sequence of Beta-galactosidase (Q8VNN2 whole entry): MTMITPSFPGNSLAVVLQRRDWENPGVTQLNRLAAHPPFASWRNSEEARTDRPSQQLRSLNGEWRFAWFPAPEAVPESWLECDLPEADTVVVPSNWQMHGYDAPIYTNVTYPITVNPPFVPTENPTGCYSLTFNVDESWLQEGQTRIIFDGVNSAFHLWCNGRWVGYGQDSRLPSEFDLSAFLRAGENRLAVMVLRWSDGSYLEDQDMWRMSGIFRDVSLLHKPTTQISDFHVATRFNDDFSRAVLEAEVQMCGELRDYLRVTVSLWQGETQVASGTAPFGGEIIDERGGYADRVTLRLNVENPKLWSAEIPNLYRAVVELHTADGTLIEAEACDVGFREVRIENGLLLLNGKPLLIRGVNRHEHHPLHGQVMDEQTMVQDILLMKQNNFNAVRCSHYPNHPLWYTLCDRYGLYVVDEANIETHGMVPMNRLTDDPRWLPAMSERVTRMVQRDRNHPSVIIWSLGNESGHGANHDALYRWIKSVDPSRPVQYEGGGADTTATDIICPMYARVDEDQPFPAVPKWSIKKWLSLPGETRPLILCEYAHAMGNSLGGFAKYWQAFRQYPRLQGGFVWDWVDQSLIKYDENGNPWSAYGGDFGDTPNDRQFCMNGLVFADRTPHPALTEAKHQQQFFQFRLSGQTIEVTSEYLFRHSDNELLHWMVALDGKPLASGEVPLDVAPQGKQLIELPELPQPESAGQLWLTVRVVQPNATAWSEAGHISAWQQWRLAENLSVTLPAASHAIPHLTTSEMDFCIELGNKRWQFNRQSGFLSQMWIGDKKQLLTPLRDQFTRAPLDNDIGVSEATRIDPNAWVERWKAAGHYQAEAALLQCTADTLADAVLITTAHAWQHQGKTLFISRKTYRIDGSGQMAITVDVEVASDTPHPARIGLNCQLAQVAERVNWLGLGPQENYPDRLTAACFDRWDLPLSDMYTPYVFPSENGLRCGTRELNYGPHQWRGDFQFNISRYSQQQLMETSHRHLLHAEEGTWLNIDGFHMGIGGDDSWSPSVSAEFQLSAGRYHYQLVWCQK
T3 sequence (P65502 whole entry): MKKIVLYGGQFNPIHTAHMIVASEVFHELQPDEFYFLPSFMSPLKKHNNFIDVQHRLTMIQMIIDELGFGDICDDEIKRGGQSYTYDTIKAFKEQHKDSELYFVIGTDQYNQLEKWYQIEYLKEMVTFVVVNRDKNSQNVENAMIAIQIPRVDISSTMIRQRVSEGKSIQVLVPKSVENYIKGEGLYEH
Sequence of Nonstructural protein 1 (Q194T2 whole entry): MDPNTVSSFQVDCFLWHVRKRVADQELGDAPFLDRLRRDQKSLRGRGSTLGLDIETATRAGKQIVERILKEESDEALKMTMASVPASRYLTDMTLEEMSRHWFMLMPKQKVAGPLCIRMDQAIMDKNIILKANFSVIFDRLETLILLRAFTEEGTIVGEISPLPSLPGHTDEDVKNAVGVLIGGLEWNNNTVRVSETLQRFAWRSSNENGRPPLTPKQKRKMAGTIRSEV
Sequence of Cytochrome P450 3A4 (P08684 whole entry): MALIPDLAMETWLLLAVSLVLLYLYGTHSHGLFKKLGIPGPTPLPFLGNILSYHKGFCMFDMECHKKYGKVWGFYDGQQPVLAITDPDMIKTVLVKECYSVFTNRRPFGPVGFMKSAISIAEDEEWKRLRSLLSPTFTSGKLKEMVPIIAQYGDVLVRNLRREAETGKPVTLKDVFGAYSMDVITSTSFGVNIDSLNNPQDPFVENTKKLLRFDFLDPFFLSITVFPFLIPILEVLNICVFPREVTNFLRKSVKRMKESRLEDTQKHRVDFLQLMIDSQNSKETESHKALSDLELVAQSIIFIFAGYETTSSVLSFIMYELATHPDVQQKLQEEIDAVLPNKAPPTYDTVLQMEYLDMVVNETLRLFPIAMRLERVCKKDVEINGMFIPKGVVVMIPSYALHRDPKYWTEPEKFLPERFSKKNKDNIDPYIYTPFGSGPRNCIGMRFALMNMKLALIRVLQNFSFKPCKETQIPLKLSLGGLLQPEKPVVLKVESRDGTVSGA
Sequence of Cytochrome P450 2C9 (P11712 whole entry): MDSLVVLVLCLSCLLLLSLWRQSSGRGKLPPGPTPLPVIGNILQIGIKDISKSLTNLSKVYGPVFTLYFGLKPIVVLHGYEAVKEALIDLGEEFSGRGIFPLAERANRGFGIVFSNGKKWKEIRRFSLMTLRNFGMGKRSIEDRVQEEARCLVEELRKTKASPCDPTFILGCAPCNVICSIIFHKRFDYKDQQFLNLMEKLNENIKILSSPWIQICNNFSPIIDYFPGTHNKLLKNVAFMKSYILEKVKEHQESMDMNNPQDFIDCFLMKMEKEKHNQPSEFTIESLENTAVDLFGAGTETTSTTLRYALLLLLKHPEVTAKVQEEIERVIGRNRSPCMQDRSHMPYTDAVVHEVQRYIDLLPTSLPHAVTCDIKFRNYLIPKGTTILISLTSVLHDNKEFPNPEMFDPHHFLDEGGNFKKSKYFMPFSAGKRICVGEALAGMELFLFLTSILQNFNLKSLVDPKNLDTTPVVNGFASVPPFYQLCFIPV
Sequence of Cytochrome P450 2D6 (P10635 whole entry): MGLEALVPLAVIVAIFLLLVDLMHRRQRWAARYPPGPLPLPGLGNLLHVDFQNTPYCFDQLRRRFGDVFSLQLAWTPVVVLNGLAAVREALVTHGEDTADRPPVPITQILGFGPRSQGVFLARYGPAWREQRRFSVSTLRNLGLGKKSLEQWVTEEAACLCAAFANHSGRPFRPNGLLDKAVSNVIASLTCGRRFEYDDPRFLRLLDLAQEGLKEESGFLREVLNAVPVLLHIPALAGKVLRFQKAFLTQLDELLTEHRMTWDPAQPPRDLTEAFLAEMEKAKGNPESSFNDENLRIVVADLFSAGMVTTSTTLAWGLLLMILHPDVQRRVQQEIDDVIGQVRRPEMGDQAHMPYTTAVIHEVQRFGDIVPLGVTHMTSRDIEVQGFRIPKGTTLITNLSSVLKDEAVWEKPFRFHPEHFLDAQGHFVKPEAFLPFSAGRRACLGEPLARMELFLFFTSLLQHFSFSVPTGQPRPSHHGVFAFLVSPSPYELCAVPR
Sequence of Melanocortin receptor 4 (P32245 whole entry): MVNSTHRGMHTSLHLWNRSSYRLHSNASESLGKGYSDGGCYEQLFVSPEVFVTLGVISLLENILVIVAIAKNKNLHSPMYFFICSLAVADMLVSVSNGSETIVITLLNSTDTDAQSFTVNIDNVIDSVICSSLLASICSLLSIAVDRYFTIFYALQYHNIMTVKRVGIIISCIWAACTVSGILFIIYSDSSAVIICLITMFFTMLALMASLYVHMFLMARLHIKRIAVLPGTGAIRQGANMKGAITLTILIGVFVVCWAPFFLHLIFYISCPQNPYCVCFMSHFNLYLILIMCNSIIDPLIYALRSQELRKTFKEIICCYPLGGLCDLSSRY

O=C1CCCCN1
GI50 (P388/ADR): > 1.12 mM (inactive) | GI50 (SN12K1): > 1.12 mM (inactive) | GI50 (P388): 764 µM (inactive)

N#Cc1cccc(NC(=O)N2CC3(CCN(C(=O)Oc4ccccc4)CC3)C2)c1
AC50 (Cytochrome P450 2D6): 39.8 µM (inconclusive) | AC50 (Cytochrome P450 1A2): 15.8 µM (inconclusive) | AC50 (Cytochrome P450 2C9): 15.8 µM (inconclusive) | AC50 (Cytochrome P450 3A4): inconclusive

COC(=O)c1ccc(OCC(=O)Nc2nn(-c3ccccc3)nc2C(N)=O)cc1
IC50 [1]: > 66.6 µM (inactive) | IC50 [2]: 3.99 µM (active)

CCOc1ccc2c(ccc(/C=C/c3cc(C)c4cccnc4c3O)[n+]2C)c1
IC50 (Nonstructural protein 1): 676 nM (active) | AC50 [3]: 276 nM (active) | CC50 (Vero): 13.1 µM (active) | IC50 (Melanocortin receptor 4): > 2.39 µM (active) | IC50 [4]: > 64.5 µM (inactive) | IC50 [5]: 8.71 µM (active) | IC50 [6]: 11.7 µM (active) | CC50 [7]: 95.9 µM (active) | IC50 [8]: 34.5 µM (active)

COc1cc(/C=C/[N+](=O)[O-])ccc1OC(=O)c1cccnc1
EC50 (Beta-galactosidase): > 40 µM (inactive) | IC50 [9]: 5.87 µM (active) | AC50 [3]: 4360 nM (active) | CC50 (Vero): 17.5 µM (active) | IC50 [10]: 1.82 µM (active)

CS(=O)(=O)OCCCCOS(C)(=O)=O [BUSULFAN]
GI50 (P388/ADR): 0.109 mM (inactive) | GI50 (SN12K1): 0.215 mM (inactive) | GI50 (P388): 117 µM (inactive)

O=C(CSc1nnc(SCc2ccccc2)s1)N/N=C/c1c[nH]c2ccccc12
IC50 [1]: > 66.6 µM (inactive) | IC50 [2]: 10.4 µM (active)

CO[C@H](CN(C)S(=O)(=O)c1ccc(Cl)cc1)[C@@H](C)CN([C@@H](C)CO)S(=O)(=O)c1cccc(Cl)c1
AC50 [11]: 2.93 µM (active) | AC50 [12]: 39.7 µM (active) | AC50 [13]: 5.98 µM (active) | AC50 [14]: 25.1 µM (active)

Cc1nn(CCC(=O)NNC(S)=NCC(C)C)c(C)c1Br
EC50 (Beta-galactosidase): 32.1 µM (active) | IC50 [9]: 15.9 µM (active)

O=c1[nH]c(=O)c2nc3c4ccccc4c4ccccc4c3nc2[nH]1
IC50 [1]: > 66.6 µM (inactive) | IC50 [2]: 2.56 µM (active)
